experiment: (§1) The drug is tested on Z-028 corresponding to mouse gut metagenome with ENA study accession number: PRJEB37062 and ENA sample accession number: ERS12561827 for biotransformation under anaerobic condition. The drug concentrations were measured over 9 timepoints collected between 0 and 24 hours of incubation by liquid-chromatography-coupled mass spectrometry (LC–MS); conditions: 2 µM
Note: call rule not given here.

Row | Bacterial Biotransformation | Structure (SMILES)
1 | Compound NOT metabolized | COc1ccc2cc([C@H](C)C(=O)O)ccc2c1 [NAPROXEN]
2 | Compound NOT metabolized | C#C[C@]1(OC(C)=O)CC[C@H]2[C@@H]3CCC4=C/C(=N/O)CC[C@@H]4[C@H]3CC[C@@]21CC [NORGESTIMATE]

experiment: as §1, with “Z-020” for “Z-028”, “rabbit” for “mouse”, “ERS12561819” for “ERS12561827”; conditions: 2 µM

Row | Bacterial Biotransformation | Structure (SMILES)
3 | Compound NOT metabolized | COc1ccc2cc([C@H](C)C(=O)O)ccc2c1 [NAPROXEN]
4 | Compound NOT metabolized | C#C[C@]1(OC(C)=O)CC[C@H]2[C@@H]3CCC4=C/C(=N/O)CC[C@@H]4[C@H]3CC[C@@]21CC [NORGESTIMATE]

conditions: human gut metagenome, 24 h, 2 µM

Row | Bacterial Biotransformation | Structure (SMILES)
5 | Compound metabolized | COc1ccc2cc([C@H](C)C(=O)O)ccc2c1 [NAPROXEN]
6 | Compound NOT metabolized | C#C[C@]1(OC(C)=O)CC[C@H]2[C@@H]3CCC4=C/C(=N/O)CC[C@@H]4[C@H]3CC[C@@]21CC [NORGESTIMATE]

experiment: as §1, with “Z-022” for “Z-028”, “ERS12561821” for “ERS12561827”; conditions: 2 µM

Row | Bacterial Biotransformation | Structure (SMILES)
7 | Compound NOT metabolized | COc1ccc2cc([C@H](C)C(=O)O)ccc2c1 [NAPROXEN]
8 | Compound NOT metabolized | C#C[C@]1(OC(C)=O)CC[C@H]2[C@@H]3CCC4=C/C(=N/O)CC[C@@H]4[C@H]3CC[C@@]21CC [NORGESTIMATE]

conditions: human gut metagenome, 24 h, 2 µM; remark: another data set of the same source

Row | Bacterial Biotransformation | Structure (SMILES)
9 | Compound NOT metabolized | COc1ccc2cc([C@H](C)C(=O)O)ccc2c1 [NAPROXEN]
10 | Compound NOT metabolized | C#C[C@]1(OC(C)=O)CC[C@H]2[C@@H]3CCC4=C/C(=N/O)CC[C@@H]4[C@H]3CC[C@@]21CC [NORGESTIMATE]

conditions: human gut metagenome, 24 h, 2 µM; remark: another data set of the same source

Row | Bacterial Biotransformation | Structure (SMILES)
11 | Compound metabolized | COc1ccc2cc([C@H](C)C(=O)O)ccc2c1 [NAPROXEN]
12 | Compound metabolized | C#C[C@]1(OC(C)=O)CC[C@H]2[C@@H]3CCC4=C/C(=N/O)CC[C@@H]4[C@H]3CC[C@@]21CC [NORGESTIMATE]

conditions: human gut metagenome, 24 h, 2 µM; remark: another data set of the same source

Row | Bacterial Biotransformation | Structure (SMILES)
13 | Compound metabolized | COc1ccc2cc([C@H](C)C(=O)O)ccc2c1 [NAPROXEN]
14 | Compound metabolized | C#C[C@]1(OC(C)=O)CC[C@H]2[C@@H]3CCC4=C/C(=N/O)CC[C@@H]4[C@H]3CC[C@@]21CC [NORGESTIMATE]

experiment: as §1, with “Z-029” for “Z-028”, “rat” for “mouse”, “ERS12561828” for “ERS12561827”; conditions: 2 µM

Row | Bacterial Biotransformation | Structure (SMILES)
15 | Compound NOT metabolized | COc1ccc2cc([C@H](C)C(=O)O)ccc2c1 [NAPROXEN]
16 | Compound metabolized | C#C[C@]1(OC(C)=O)CC[C@H]2[C@@H]3CCC4=C/C(=N/O)CC[C@@H]4[C@H]3CC[C@@]21CC [NORGESTIMATE]

experiment: as §1, with “Z-007” for “Z-028”, “rat” for “mouse”, “ERS12561807” for “ERS12561827”; conditions: 2 µM

Row | Bacterial Biotransformation | Structure (SMILES)
17 | Compound NOT metabolized | COc1ccc2cc([C@H](C)C(=O)O)ccc2c1 [NAPROXEN]
18 | Compound NOT metabolized | C#C[C@]1(OC(C)=O)CC[C@H]2[C@@H]3CCC4=C/C(=N/O)CC[C@@H]4[C@H]3CC[C@@]21CC [NORGESTIMATE]

conditions: human gut metagenome, 24 h, 2 µM; remark: another data set of the same source

Row | Bacterial Biotransformation | Structure (SMILES)
19 | Compound metabolized | COc1ccc2cc([C@H](C)C(=O)O)ccc2c1 [NAPROXEN]
20 | Compound metabolized | C#C[C@]1(OC(C)=O)CC[C@H]2[C@@H]3CCC4=C/C(=N/O)CC[C@@H]4[C@H]3CC[C@@]21CC [NORGESTIMATE]

experiment: as §1, with “WLS-170” for “Z-028”, “human” for “mouse”, “ERS12561762” for “ERS12561827”; conditions: 2 µM

Row | Bacterial Biotransformation | Structure (SMILES)
21 | Compound metabolized | COc1ccc2cc([C@H](C)C(=O)O)ccc2c1 [NAPROXEN]
22 | Compound metabolized | C#C[C@]1(OC(C)=O)CC[C@H]2[C@@H]3CCC4=C/C(=N/O)CC[C@@H]4[C@H]3CC[C@@]21CC [NORGESTIMATE]

experiment: as §1, with “WLS-077” for “Z-028”, “human” for “mouse”, “ERS12561750” for “ERS12561827”; conditions: 2 µM

Row | Bacterial Biotransformation | Structure (SMILES)
23 | Compound NOT metabolized | COc1ccc2cc([C@H](C)C(=O)O)ccc2c1 [NAPROXEN]
24 | Compound metabolized | C#C[C@]1(OC(C)=O)CC[C@H]2[C@@H]3CCC4=C/C(=N/O)CC[C@@H]4[C@H]3CC[C@@]21CC [NORGESTIMATE]

conditions: human gut metagenome, 24 h, 2 µM; remark: another data set of the same source

Row | Bacterial Biotransformation | Structure (SMILES)
25 | Compound NOT metabolized | COc1ccc2cc([C@H](C)C(=O)O)ccc2c1 [NAPROXEN]
26 | Compound NOT metabolized | C#C[C@]1(OC(C)=O)CC[C@H]2[C@@H]3CCC4=C/C(=N/O)CC[C@@H]4[C@H]3CC[C@@]21CC [NORGESTIMATE]

conditions: human gut metagenome, 24 h, 2 µM; remark: another data set of the same source

Row | Bacterial Biotransformation | Structure (SMILES)
27 | Compound NOT metabolized | COc1ccc2cc([C@H](C)C(=O)O)ccc2c1 [NAPROXEN]
28 | Compound metabolized | C#C[C@]1(OC(C)=O)CC[C@H]2[C@@H]3CCC4=C/C(=N/O)CC[C@@H]4[C@H]3CC[C@@]21CC [NORGESTIMATE]

conditions: human gut metagenome, 24 h, 2 µM; remark: another data set of the same source

Row | Bacterial Biotransformation | Structure (SMILES)
29 | Compound NOT metabolized | COc1ccc2cc([C@H](C)C(=O)O)ccc2c1 [NAPROXEN]
30 | Compound metabolized | C#C[C@]1(OC(C)=O)CC[C@H]2[C@@H]3CCC4=C/C(=N/O)CC[C@@H]4[C@H]3CC[C@@]21CC [NORGESTIMATE]

experiment: as §1, with “WLS-220” for “Z-028”, “human” for “mouse”, “ERS12561769” for “ERS12561827”; conditions: 2 µM

Row | Bacterial Biotransformation | Structure (SMILES)
31 | Compound metabolized | COc1ccc2cc([C@H](C)C(=O)O)ccc2c1 [NAPROXEN]
32 | Compound metabolized | C#C[C@]1(OC(C)=O)CC[C@H]2[C@@H]3CCC4=C/C(=N/O)CC[C@@H]4[C@H]3CC[C@@]21CC [NORGESTIMATE]

conditions: human gut metagenome, 24 h, 2 µM; remark: another data set of the same source

Row | Bacterial Biotransformation | Structure (SMILES)
33 | Compound metabolized | COc1ccc2cc([C@H](C)C(=O)O)ccc2c1 [NAPROXEN]
34 | Compound NOT metabolized | C#C[C@]1(OC(C)=O)CC[C@H]2[C@@H]3CCC4=C/C(=N/O)CC[C@@H]4[C@H]3CC[C@@]21CC [NORGESTIMATE]

conditions: human gut metagenome, 24 h, 2 µM; remark: another data set of the same source

Row | Bacterial Biotransformation | Structure (SMILES)
35 | Compound NOT metabolized | COc1ccc2cc([C@H](C)C(=O)O)ccc2c1 [NAPROXEN]
36 | Compound NOT metabolized | C#C[C@]1(OC(C)=O)CC[C@H]2[C@@H]3CCC4=C/C(=N/O)CC[C@@H]4[C@H]3CC[C@@]21CC [NORGESTIMATE]

experiment: as §1, with “WLS-052” for “Z-028”, “human” for “mouse”, “ERS12561747” for “ERS12561827”; conditions: 2 µM

Row | Bacterial Biotransformation | Structure (SMILES)
37 | Compound metabolized | COc1ccc2cc([C@H](C)C(=O)O)ccc2c1 [NAPROXEN]
38 | Compound metabolized | C#C[C@]1(OC(C)=O)CC[C@H]2[C@@H]3CCC4=C/C(=N/O)CC[C@@H]4[C@H]3CC[C@@]21CC [NORGESTIMATE]

experiment: as §1, with “WLS-240” for “Z-028”, “human” for “mouse”, “ERS12561773” for “ERS12561827”; conditions: 2 µM

Row | Bacterial Biotransformation | Structure (SMILES)
39 | Compound metabolized | COc1ccc2cc([C@H](C)C(=O)O)ccc2c1 [NAPROXEN]
40 | Compound metabolized | C#C[C@]1(OC(C)=O)CC[C@H]2[C@@H]3CCC4=C/C(=N/O)CC[C@@H]4[C@H]3CC[C@@]21CC [NORGESTIMATE]

— ChEMBL document CHEMBL5724914, “Linking interpersonal differences in gut microbiota composition and drug biotransformation activity” (2024)
